Legend:
Stellaria media [1] = test: Post-emergence herbicidal effect; format: in vivo; conditions: assessed visually after about 3 weeks vs untreated controls
Method in brief: (§1)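 Ratings are visual percentages taken around 3 weeks after treatment, compared with untreated plants. Treatment consisted of an aqueous spray of WP or EC formulations, with 0.2% wetting agent, onto one-leaf-stage weeds raised from seed in sandy loam.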

Viola tricolor [2] = test: Post-emergence herbicidal effect; format: in vivo; conditions: assessed visually after about 3 weeks vs untreated controls
Method in brief: as §1

Ipomoea purpurea = test: Post-emergence herbicidal effect; format: in vivo; conditions: 320 g/ha, assessed visually after about 3 weeks vs untreated controls
Method in brief: as §1

Echinochloa crus-galli [3] = test: Post-emergence herbicidal effect; format: in vivo; conditions: assessed visually after about 3 weeks vs untreated controls
Method in brief: as §1

Veronica persica [4] = test: Post-emergence herbicidal effect; format: in vivo; conditions: assessed visually after about 3 weeks vs untreated controls
Method in brief: as §1

Amaranthus retroflexus [5] = test: Post-emergence herbicidal effect; format: in vivo; conditions: assessed visually after about 3 weeks vs untreated controls
Method in brief: as §1

Stellaria media [6] = test: Pre-emergence herbicidal effect; format: in vivo; conditions: scored visually after 3 weeks
Method in brief: (§2)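 Seeds sown in sandy loam in wood-fiber pots and covered with soil; WP or EC formulations applied to the soil surface as aqueous suspension or emulsion at 600 to 800 L/ha water with 0.2% wetting agent. Greenhouse, 3 weeks; damage scored visually versus untreated controls (100% = plants died, 0% = like control).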

Viola tricolor [7] = test: Pre-emergence herbicidal effect; format: in vivo; conditions: scored visually after 3 weeks
Method in brief: as §2

Abutilon theophrasti [8] = test: Pre-emergence herbicidal effect; format: in vivo; conditions: Dosage 320 g/ha, scored visually after 3 weeks
Method in brief: as §2

Matricaria inodora [9] = test: Pre-emergence herbicidal effect; format: in vivo; conditions: scored visually after 3 weeks
Method in brief: as §2

Echinochloa crus-galli [10] = test: Pre-emergence herbicidal effect; format: in vivo; conditions: scored visually after 3 weeks
Method in brief: as §2

Veronica persica [11] = test: Pre-emergence herbicidal effect; format: in vivo; conditions: scored visually after 3 weeks
Method in brief: as §2

Setaria viridis [12] = test: Pre-emergence herbicidal effect; format: in vivo; conditions: scored visually after 3 weeks
Method in brief: as §2

Amaranthus retroflexus [13] = test: Pre-emergence herbicidal effect; format: in vivo; conditions: scored visually after 3 weeks
Method in brief: as §2

Polygonum convolvulus [14] = test: Pre-emergence herbicidal effect; format: in vivo; conditions: Dosage 320 g/ha, scored visually after 3 weeks
Method in brief: as §2

logP (HCOOH) = format: physicochemical; conditions: HCOOH
Description: Table 2 (physicochemical characterization of selected synthesis examples)

Setaria viridis [15] = test: Post-emergence herbicidal effect; format: in vivo; conditions: 320 g/ha, assessed visually after about 3 weeks vs untreated controls
Method in brief: as §1

Polygonum convolvulus [16] = test: Post-emergence herbicidal effect; format: in vivo; conditions: assessed visually after about 3 weeks vs untreated controls
Method in brief: as §1

Lolium multiflorum [17] = test: Post-emergence herbicidal effect; format: in vivo; conditions: 320 g/ha, assessed visually after about 3 weeks vs untreated controls
Method in brief: as §1

Alopecurus myosuroides = test: Pre-emergence herbicidal effect; format: in vivo; conditions: scored visually after 3 weeks
Method in brief: as §2

Lolium multiflorum [18] = test: Pre-emergence herbicidal effect; format: in vivo; conditions: scored visually after 3 weeks
Method in brief: as §2

Abutilon theophrasti [19] = test: Post-emergence herbicidal effect; format: in vivo; conditions: assessed visually after about 3 weeks vs untreated controls
Method in brief: as §1

Matricaria inodora [20] = test: Post-emergence herbicidal effect; format: in vivo; conditions: assessed visually after about 3 weeks vs untreated controls
Method in brief: as §1

Row | SMILES | post-emergence efficacy STEME (Stellaria media [1]; 80 g/ha) [%] | post-emergence efficacy STEME (Stellaria media [1]; 320 g/ha) [%] | post-emergence efficacy VIOTR (Viola tricolor [2]; 80 g/ha) [%] | post-emergence efficacy VIOTR (Viola tricolor [2]; 320 g/ha) [%] | post-emergence efficacy PHBPU (Ipomoea purpurea) [%] | post-emergence efficacy ECHCG (Echinochloa crus-galli [3]; 320 g/ha) [%] | post-emergence efficacy VERPE (Veronica persica [4]; 80 g/ha) [%] | post-emergence efficacy VERPE (Veronica persica [4]; 320 g/ha) [%] | post-emergence efficacy AMARE (Amaranthus retroflexus [5]; 320 g/ha) [%] | STEME pre-emergence efficacy (herbicidal activity) (Stellaria media [6]; Dosage 80 g/ha) [%] | STEME pre-emergence efficacy (herbicidal activity) (Stellaria media [6]; Dosage 320 g/ha) [%] | VIOTR pre-emergence efficacy (herbicidal activity) (Viola tricolor [7]; Dosage 80 g/ha) [%] | VIOTR pre-emergence efficacy (herbicidal activity) (Viola tricolor [7]; Dosage 320 g/ha) [%] | ABUTH pre-emergence efficacy (herbicidal activity) (Abutilon theophrasti [8]) [%] | MATIN pre-emergence efficacy (herbicidal activity) (Matricaria inodora [9]; Dosage 80 g/ha) [%] | ECHCG pre-emergence efficacy (herbicidal activity) (Echinochloa crus-galli [10]; Dosage 320 g/ha) [%] | VERPE pre-emergence efficacy (herbicidal activity) (Veronica persica [11]; Dosage 320 g/ha) [%] | SETVI pre-emergence efficacy (herbicidal activity) (Setaria viridis [12]; Dosage 320 g/ha) [%] | AMARE pre-emergence efficacy (herbicidal activity) (Amaranthus retroflexus [13]; Dosage 320 g/ha) [%] | logP (HCOOH) (logP (HCOOH)) | further results
1 | CS(=O)(=O)c1cnc(NC2CCCc3sc(Cl)cc32)nc1N (racemic) [compound 42] | 90 | 100 | 90 | 100 | 80 | 100 | 90 | 100 | 90 | 100 | 100 | 100 | 100 | 100 | 100 | 100 | 100 | 100 | 100 | oily; logP (HCOOH): 2.33; 1H NMR (CDCl3, 400 MHZ, δ in ppm): 1.80 (m, 1H, 1H of | MATIN pre-emergence efficacy (herbicidal activity) (Matricaria inodora [9]; Dosage 320 g/ha): 100%; ECHCG pre-emergence efficacy (herbicidal activity) (Echinochloa crus-galli [10]; Dosage 80 g/ha): 100%; VERPE pre-emergence efficacy (herbicidal activity) (Veronica persica [11]; Dosage 80 g/ha): 100%; SETVI pre-emergence efficacy (herbicidal activity) (Setaria viridis [12]; Dosage 80 g/ha): 100%; AMARE pre-emergence efficacy (herbicidal activity) (Amaranthus retroflexus [13]; Dosage 80 g/ha): 100%; POLCO pre-emergence efficacy (herbicidal activity) (Polygonum convolvulus [14]): 80%
2 | CS(=O)(=O)c1cnc(NC2CCCc3cc(Cl)sc32)nc1N (racemic) [compound 53] | 100 | 100 | 90 | 100 | 90 | 90 | 90 | 90 | 100 | 80 | 100 | 100 | 100 |  | 100 | 100 | 100 | 100 | 100 | solid; logP (HCOOH): 2.41; 1H NMR (CDCl3, 400 MHZ, δ in ppm): 1.75-2.00 (m, | post-emergence efficacy ECHCG (Echinochloa crus-galli [3]; 80 g/ha): 80%; post-emergence efficacy SETVI (Setaria viridis [15]): 100%; post-emergence efficacy AMARE (Amaranthus retroflexus [5]; 80 g/ha): 90%; post-emergence efficacy POLCO (Polygonum convolvulus [16]; 80 g/ha): 80%; post-emergence efficacy POLCO (Polygonum convolvulus [16]; 320 g/ha): 90%; MATIN pre-emergence efficacy (herbicidal activity) (Matricaria inodora [9]; Dosage 320 g/ha): 100%; ECHCG pre-emergence efficacy (herbicidal activity) (Echinochloa crus-galli [10]; Dosage 80 g/ha): 100%; VERPE pre-emergence efficacy (herbicidal activity) (Veronica persica [11]; Dosage 80 g/ha): 100%; AMARE pre-emergence efficacy (herbicidal activity) (Amaranthus retroflexus [13]; Dosage 80 g/ha): 100%; POLCO pre-emergence efficacy (herbicidal activity) (Polygonum convolvulus [14]): 90%
3 | Cc1cc2c(o1)CCCC2Nc1ncc(S(C)(=O)=O)c(N)n1 (racemic) [compound 62] |  | 90 |  | 100 |  | 40 |  |  | 90 | 90 | 100 | 90 | 100 | 90 | 80 | 80 | 90 | 80 | 100 | oily; logP (HCOOH): 1.78; 1H NMR (CDCl3, 400 MHZ, δ in ppm): 1.70-2.00 (m, 4H, | post-emergence efficacy LOLMU (Lolium multiflorum [17]): 80%; post-emergence efficacy AMARE (Amaranthus retroflexus [5]; 80 g/ha): 80%; ALOMY pre-emergence efficacy (herbicidal activity) (Alopecurus myosuroides; Dosage 320 g/ha): 60%; LOLMU pre-emergence efficacy (herbicidal activity) (Lolium multiflorum [18]; Dosage 320 g/ha): 50%; MATIN pre-emergence efficacy (herbicidal activity) (Matricaria inodora [9]; Dosage 320 g/ha): 100%
4 | CC(=O)c1cnc(NC2CCCc3sc(C)cc32)nc1N (racemic) [compound 150] | 80 | 100 | 80 | 90 | 90 | 80 | 100 | 100 | 90 | 100 | 100 | 100 | 100 | 70 |  | 100 | 100 | 100 | 100 | oily; logP (HCOOH): 1.51; 1H NMR (CDCl3, 400 MHZ, δ in ppm): 1.85 (m, 3H, 3H of | post-emergence efficacy LOLMU (Lolium multiflorum [17]): 90%; post-emergence efficacy ABUTH (Abutilon theophrasti [19]; 80 g/ha): 80%; post-emergence efficacy ABUTH (Abutilon theophrasti [19]; 320 g/ha): 80%; post-emergence efficacy MATIN (Matricaria inodora [20]; 80 g/ha): 80%; post-emergence efficacy MATIN (Matricaria inodora [20]; 320 g/ha): 90%; post-emergence efficacy SETVI (Setaria viridis [15]): 90%; post-emergence efficacy AMARE (Amaranthus retroflexus [5]; 80 g/ha): 80%; ALOMY pre-emergence efficacy (herbicidal activity) (Alopecurus myosuroides; Dosage 80 g/ha): 90%; ALOMY pre-emergence efficacy (herbicidal activity) (Alopecurus myosuroides; Dosage 320 g/ha): 100%; LOLMU pre-emergence efficacy (herbicidal activity) (Lolium multiflorum [18]; Dosage 80 g/ha): 100%; LOLMU pre-emergence efficacy (herbicidal activity) (Lolium multiflorum [18]; Dosage 320 g/ha): 100%; ECHCG pre-emergence efficacy (herbicidal activity) (Echinochloa crus-galli [10]; Dosage 80 g/ha): 90%; VERPE pre-emergence efficacy (herbicidal activity) (Veronica persica [11]; Dosage 80 g/ha): 70%; SETVI pre-emergence efficacy (herbicidal activity) (Setaria viridis [12]; Dosage 80 g/ha): 100%; AMARE pre-emergence efficacy (herbicidal activity) (Amaranthus retroflexus [13]; Dosage 80 g/ha): 100%; POLCO pre-emergence efficacy (herbicidal activity) (Polygonum convolvulus [14]): 100%

— patent US10251395B2, “Substituted furano-/thienocycloalkylamino-2-pyrimidine derivatives and use thereof for controlling undesired plant growth” (Bayer CropScience Aktiengesellschaft, priority 2015, dated 2019)
